{"source": "paper PMC11042424", "about": "“Development of a First-in-Class RIPK1 Degrader to Enhance Antitumor Immunity” (Research Square, 2024)", "key": {"[1]": {"test_system": "whole cellular proteome of MDA-MB-231 cells", "experiment": "Proteome profiling of LD4172 induced protein degradation", "format": "cell-based, human", "conditions": "200 nM, 6 h", "protocol": "One million MDA-MB-231 cells were seeded in 6-well plates. The following day, cells were treated in triplicate with LD4172 (200 nM) or LD4172-NC (200 nM) for 6 h. The cells were washed thrice with ice-cold PBS. The cell pellets were lysed, reduced, alkylated, and digested using EasyPep™ MS Sample Prep Kits (A45733,ThermoFisher) according to the manufacturer’s instructions. The same amount of peptide from each condition was labeled with a tandem mass tag (TMT) reagent (90113, ThermoFisher). The 10-plex TMT reagent was incubated with each peptide sample at a ratio of 1:8 (peptide:TMT label). The 10-plex labeling reactions were performed for 1 h at room temperature. The labeled peptide samples were quenched by adding 50 μL of 5% hydroxylamine and 20% formic acid solution for 5 min and then mixed. […]\nProteome Discoverer 2.4 (Thermo Fisher Scientific) was used. RAW file processing and controlling peptide- and protein-level false discovery rates, assembling proteins from peptides, and protein quantification from peptides. […] PSMs with precursor isolation interference values > 50% and average TMT-reporter ion signal-to-noise values (S/N) < 10 were excluded from quantitation. […] Protein quantification uses both unique and […] peptides. […]"}, "B16F10 tumors": {"test_system": "B16F10 tumors", "experiment": "B16F10 syngeneic tumor model with anti-PD1", "format": "in vivo", "protocol": "Figure 4 LD4172 synergizes with Anti-PD1 to inhibit tumor growth. A, Plasma concentrations of LD4172 in C57BL/6J mice administered 1 mg/kg intravenously (i.v.) or 10 mg/kg intraperitoneally (i.p.) (n=4). B, Representative immunoblots of RIPK1 in different tissues of C57BL/6J mice treated with LD4172 (n=3–4). C, Densitometric analysis of RIPK1 protein levels in different tissues (n=3 or 4). D, Representative immunoblots of RIPK1 levels of B16F10 cells transduced with gRNA specific for RIPK1 or non-targetable control (sgNC). E, B16F10-RIPK1-KO tumors sensitized to anti-PD1 treatment: 3×10^5 B16F10 cells transduced with gRNA specific for RIPK1 or non-targetable control (sgNC) were inoculated into C57BL/6J mice. After seven days, mice with measurable tumors (~100 mm3) were randomly treated with or without anti-PD1 in vivo (100 μg per dose, i.p., every three days, n=8). F, Tumor growth curve of mice with B16F10 tumors treated with LD4172 and/or anti-PD1 (n=8). C57B6/J mice were subcutaneously inoculated with 3×10^5 B16F10 tumor cells. After seven days (tumor size ~ 100 mm3), mice were treated every three days with anti- PD1 (100 μg per dose, i.p.), daily with LD4172 (20 mg/kg, i.p.), a combination of LD4172 and anti-PD1 (same dose as their individual doses), or their corresponding vehicle control. G, Kaplan-Meier survival curve for all experimental groups. H, Final tumor weight (g) from F after 22d of treatment (n=8). I, Representative images of B16F10 tumors collected at the end of treatment. J, Mouse body weight (n=8). K, Tumor growth curve of mice with B16F10 tumors treated with T2I and/or anti-PD1 (n=8). The experimental conditions and treatment regimens were the same as F except using the RIPK1 kinase inhibitor T2I (20 mg/kg, i.p.) to replace LD4172. Representative data from at least three independent experiments are shown. Data are expressed as the mean ± SEM. * p<0.05; ** p<0.01; *** p<0.001, **** p<0.0001, respectively. ns, indicates no statistical significance.\nTo establish a syngeneic mouse model, 3× 10^5 B16F10 cells resuspended in PBS were mixed 1:1 by volume with Matrigel (354262, Corning) and subcutaneously injected into the right flank of seven-week-old wild-type female C57BL/6J mice on day 0. Treatments were started on day 7 when the tumor volume reached approximately 100 mm^3. Antibodies were administered in 100μL volumes and injected intraperitoneally every three days for the following: anti-PD1 (100 μg, BE0146, BioXcell) and anti-CD8 (500 μg, BE0004, BioXcell). The RIPK1 degrader LD4172 and RIPK1 kinase inhibitor T2I were delivered in 200 μL of vehicle solution (30% PEG400, 5% Tween-80, 5% DMSO) once daily (20 mg/kg, i.p. injection). […] Tumors were measured every three days beginning on day 7 after the challenge until death. […]"}}, "note": "Entries after “also recorded” stand apart in the source; their conditions may differ."}
{"molecule": "Cc1ncsc1-c1ccc([C@H](C)NC(=O)[C@@H]2C[C@@H](O)CN2C(=O)[C@@H](NC(=O)CCCCCCCCCCC(=O)NCCCn2cc(-c3ccc4c(c3)CCN4C(=O)Cc3cccc(OC(F)(F)F)c3)c3c(N)ncnc32)C(C)(C)C)cc1", "note": "[LD4172]", "values": [{"measurement": "degradation of off-target kinases", "setting": "[1]", "result": "no degradation of off-target kinases was observed"}, {"measurement": "proteins degraded in whole cellular proteome", "setting": "[1]; vs LD4172-NC", "result": "only protein showing >50% degradation; also recorded: RIPK1 was the only protein degraded"}, {"measurement": "tumor response in combination with anti-PD1", "setting": "B16F10 tumors; B16F10 tumors, 20 mg/kg i.p. daily plus anti-PD1 100 μg i.p. every three days", "result": "sensitized B16F10 tumors to anti-PD1 therapy"}, {"measurement": "tumor progression, single agent", "setting": "B16F10 tumors; B16F10 tumors, LD4172 20 mg/kg i.p. daily, anti-PD1 100 μg i.p. every three days", "result": "tumor progression similar to that of the untreated mice"}, {"measurement": "mouse body weight", "setting": "B16F10 tumors; long-term administration", "result": "no impact on mouse body weight"}]}
